Assay results: ChEMBL document CHEMBL1130515, “4-Heterocyclyl tetrahydropyridines as selective ligands for the human dopamine D4 receptor” (Bioorg Med Chem Lett, 1997)

What was measured:
[1] = molecular target: D(2) dopamine receptor (Homo sapiens, UniProt P14416); experiment: Displacement of [3H]spiperone from human dopamine D2 receptor in CHO cells; type: cell-based
[2] = molecular target: D(3) dopamine receptor (Homo sapiens, UniProt P35462); experiment: Displacement of [3H]spiperone from human dopamine receptor subtype hD3 expressed in CHO cells; type: cell-based
Chain of D(3) dopamine receptor (P35462 whole entry): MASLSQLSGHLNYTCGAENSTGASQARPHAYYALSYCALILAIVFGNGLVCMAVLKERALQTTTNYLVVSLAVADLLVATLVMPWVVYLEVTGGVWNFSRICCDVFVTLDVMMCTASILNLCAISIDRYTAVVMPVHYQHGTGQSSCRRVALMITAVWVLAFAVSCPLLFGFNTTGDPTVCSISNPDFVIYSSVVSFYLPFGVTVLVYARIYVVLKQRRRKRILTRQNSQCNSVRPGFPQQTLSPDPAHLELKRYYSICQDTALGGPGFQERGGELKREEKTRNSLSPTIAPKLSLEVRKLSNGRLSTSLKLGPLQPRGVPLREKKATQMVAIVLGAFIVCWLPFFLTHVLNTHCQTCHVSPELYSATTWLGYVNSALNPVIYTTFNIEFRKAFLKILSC

[3] = molecular target: T1, D(4) dopamine receptor (Homo sapiens, UniProt P21917); experiment: Displacement of [3H]spiperone from human dopamine receptor subtype hD4 expressed in HEK293 cells; type: cell-based
T1 sequence (P21917 whole entry): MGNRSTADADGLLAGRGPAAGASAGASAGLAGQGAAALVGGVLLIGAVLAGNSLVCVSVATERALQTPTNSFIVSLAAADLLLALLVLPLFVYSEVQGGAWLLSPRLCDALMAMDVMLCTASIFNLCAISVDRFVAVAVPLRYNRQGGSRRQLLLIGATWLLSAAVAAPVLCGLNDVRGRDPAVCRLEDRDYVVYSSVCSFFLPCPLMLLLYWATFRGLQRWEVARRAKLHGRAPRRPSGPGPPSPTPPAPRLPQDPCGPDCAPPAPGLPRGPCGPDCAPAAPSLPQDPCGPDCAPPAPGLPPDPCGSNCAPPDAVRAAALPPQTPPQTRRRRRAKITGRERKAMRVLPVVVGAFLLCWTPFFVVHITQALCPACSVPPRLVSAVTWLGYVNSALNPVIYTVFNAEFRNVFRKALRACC

[4] = molecular target: Dopamine receptors; D2 & D4 (Homo sapiens) (UniProt P14416+P21917); experiment: Ratio of dopamine D2/D4 receptor binding; type: protein assay
Chain of Dopamine receptors; D2 & D4 (Homo sapiens) (P14416 whole entry, looked up, one chain of several): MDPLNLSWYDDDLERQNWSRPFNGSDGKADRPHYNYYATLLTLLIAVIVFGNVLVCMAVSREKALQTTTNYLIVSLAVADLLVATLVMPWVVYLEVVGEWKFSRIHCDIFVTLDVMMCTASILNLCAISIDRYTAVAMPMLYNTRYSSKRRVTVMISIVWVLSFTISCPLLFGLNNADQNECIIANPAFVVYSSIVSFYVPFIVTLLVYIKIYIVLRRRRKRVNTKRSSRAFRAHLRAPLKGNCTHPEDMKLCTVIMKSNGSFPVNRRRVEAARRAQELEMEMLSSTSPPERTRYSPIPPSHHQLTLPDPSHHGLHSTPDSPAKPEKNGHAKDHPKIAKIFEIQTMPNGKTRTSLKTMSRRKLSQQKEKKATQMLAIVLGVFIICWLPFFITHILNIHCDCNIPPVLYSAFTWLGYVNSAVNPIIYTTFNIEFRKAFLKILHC

[5] = system: Rattus norvegicus; experiment: Volume of distribution (Vss) was evaluated in rat at an intravenous dose of 3 mg/kg and peroral dose of 5 mg/kg; type: ADME, organism-based; conditions: in vivo
[6] = system: Rattus norvegicus; experiment: Plasma clearance was evaluated in rat at an intravenous dose of 3 mg/kg and peroral dose of 5 mg/kg; type: ADME, organism-based; conditions: in vivo
[7] = Maximum concentration in plasma (Cmax) was evaluated in rhesus monkey at an intravenous dose of 1 mg/kg and peroral dose of 1 mg/kg; type: ADME, organism-based, Macaca mulatta; conditions: po
[8] = Bioavailability was evaluated in rat at an intravenous dose of 3 mg/kg and peroral dose of 5 mg/kg; type: ADME, organism-based; conditions: in vivo, po, read-out: Bioavailabiility
[9] = Half life was evaluated in rat at an intravenous dose of 3 mg/kg and peroral dose of 5 mg/kg; type: ADME, organism-based; conditions: in vivo
[10] = Half life was evaluated in rhesus monkey at an intravenous dose of 1 mg/kg and peroral dose of 1 mg/kg; type: ADME, organism-based, Macaca mulatta; conditions: in vivo
[11] = system: Rhesus monkey; experiment: Volume of distribution (Vss) was evaluated in rhesus monkey at an intravenous dose of 1 mg/kg and peroral dose of 1 mg/kg; type: ADME, organism-based, Macaca mulatta; conditions: in vivo
[12] = Bioavailability was evaluated in rhesus monkey at an intravenous dose of 1 mg/kg and peroral dose of 1 mg/kg; type: ADME, organism-based, Macaca mulatta; conditions: in vivo, po, read-out: Bioavailabiility
[13] = Maximum concentration in plasma (Cmax) was evaluated in rat at an intravenous dose of 3 mg/kg and peroral dose of 5 mg/kg; type: ADME, organism-based; conditions: po

Chain of D(2) dopamine receptor (P14416 whole entry): as the sequence (P14416 whole entry, looked up, one chain of several) above

## Clc1ccc(CN2CC=C(c3nc4cc(Cl)ccc4[nH]3)CC2)cc1
[1]
  Ki: 330 nM
[2]
  Ki: 900 nM
[3]
  Ki: 10 nM
[4]
  Ratio: 33

## Clc1ccc(CN2CC=C(c3nc4ccccc4[nH]3)CC2)cc1
[1]
  Ki: 670 nM
[2]
  Ki: 1600 nM
[3]
  Ki: 68 nM
[4]
  Ratio: 10

## Clc1ccc2[nH]c(C3=CCN(Cc4ccccc4)CC3)nc2c1
[1]
  Ki: 590 nM
[2]
  Ki: 2900 nM
[3]
  Ki: 26 nM
[4]
  Ratio: 23

## Clc1cccc(CN2CC=C(c3nc4ccccc4s3)CC2)c1
[1]
  Ki: 340 nM
[2]
  Ki: 630 nM
[3]
  Ki: 8.1 nM
[4]
  Ratio: 42

## Clc1ccc(CN2CC=C(c3nc4cc(Cl)ccc4s3)CC2)cc1
[1]
  Ki: 2000 nM
[2]
  Ki: 660 nM
[3]
  Ki: 21 nM
[4]
  Ratio: 97

## C1=C(c2nc3ccccc3[nH]2)CCN(Cc2ccccc2)C1
[1]
  Ki: 1400 nM
[2]
  Ki: 4400 nM
[3]
  Ki: 94 nM
[4]
  Ratio: 15

## Clc1ccc2sc(C3=CCN(Cc4ccccc4)CC3)nc2c1
[1]
  Ki: > 1600 nM
[2]
  Ki: 1800 nM
[3]
  Ki: 44 nM
[4]
  Ratio: > 36

## Clc1ccc2oc(C3=CCN(Cc4ccccc4)CC3)nc2c1
[1]
  Ki: > 1800 nM
[2]
  Ki: 1600 nM
[3]
  Ki: 17 nM
[4]
  Ratio: > 100

## Clc1ccc(CN2CC=C(c3nc4ccccc4s3)CC2)cc1
[5]
  Vss: 3.81 kg⁻¹
[6]
  Plasma clearance: 39 Clp
[7]
  Cmax: 23 ng/mL
[1]
  Ki: > 1600 nM
[8]
  bioavailability: 17%
[9]
  half-life: 3.1 h
[10]
  half-life: 4.7 h
[2]
  Ki: > 4400 nM
[11]
  Vss: 2.5 kg⁻¹
[3]
  Ki: 1.3 nM
[12]
  bioavailability: 9%
[13]
  Cmax: 97 ng/mL
[4]
  Ratio: > 1000

## Clc1ccc(CN2CC=C(c3nc4cc(Cl)ccc4o3)CC2)cc1
[1]
  Ki: > 1700 nM
[2]
  Ki: > 4500 nM
[3]
  Ki: 8.4 nM
[4]
  Ratio: > 200

## Clc1ccccc1CN1CC=C(c2nc3ccccc3s2)CC1
[1]
  Ki: > 2000 nM
[2]
  Ki: 1400 nM
[3]
  Ki: 87 nM
[4]
  Ratio: > 23

## C1=C(c2nc3ccccc3s2)CCN(Cc2ccccc2)C1
[1]
  Ki: 600 nM
[2]
  Ki: 560 nM
[3]
  Ki: 5 nM
[4]
  Ratio: 120

## C1=C(c2nc3ccccc3o2)CCN(Cc2ccccc2)C1
[1]
  Ki: 240 nM
[2]
  Ki: 4500 nM
[3]
  Ki: 97 nM
[4]
  Ratio: 3
